PMC6886403, “Structure-Based and Molecular Modeling Studies for the Discovery of Cyclic Imides as Reversible Cruzain Inhibitors With Potent Anti-Trypanosoma cruzi Activity” (Frontiers in Chemistry, 2019)
Where two headings read alike, the source gives them in different places.

Tests used:
[1] = Cytotoxicity in HepG2 cells (MTS tetrazolium assay); type: cell-based; details: human, HepG2 hepatocytes, mean ± SD of two independent assays
Protocol: (§1) The cytotoxicities of the compounds against HFF-1 fibroblasts and HepG2 hepatocytes were evaluated using the MTS tetrazolium assay (Promega, Madison, WI) (Barltrop et al., [1991]). HFF-1 fibroblasts were seeded at 2 × 10^3/well in 96-well culture plates in RPMI 1640 without phenol red supplemented with 10% FCS and incubated overnight (37°C, 5% CO2). HepG2 hepatocytes were seeded at 6 × 10^3/well in 96-well culture plates in DMEM (Cultilab, Campinas SP) supplemented with 10% FCS and incubated overnight (37°C, 5% CO2). The compounds were added in 3-fold serial dilutions, and the plates were incubated at 37°C with 5% CO2. Each compound concentration was evaluated in triplicate. All plates included doxorubicin (Sigma-Aldrich, St. Louis, MO) as a positive control and untreated wells (100% growth) as a negative control. After 72 h, 20 μL of MTS was added, and the plates were incubated for 4 h. The absorbance was measured at 490 nm in an automated microplate reader, and the data were transferred to SigmaPlot 10.0 (Systat Software Inc., Erkrath, Germany) for IC50 value calculation. The percent of nonviable cells was determined and compared to the negative control wells (100% growth).

[2] = test system: T. cruzi intracellular amastigotes; assay: T. cruzi intracellular amastigote assay (Tulahuen lacZ strain, CPRG readout); type: cell-based, Trypanosoma cruzi; details: for IC50: Trypanosoma cruzi, read-out: IC50 T. cruzi
Protocol: In vitro assays against T. cruzi were performed as described previously (Ferreira et al., [2014]). The T. cruzi Tulahuen strain, which expresses the E. coli β-galactosidase gene lacZ (Buckner et al., [1996]), was provided by Frederick S. Buckner (University of Washington, Seattle, WA). Stock solutions of the synthesized compounds were prepared in 100% DMSO. Epimastigotes were grown in liver infusion tryptone (LIT) supplemented with 10% fetal calf serum (FCS), penicillin and streptomycin (28°C). Metacyclogenesis from epimastigotes to trypomastigotes was induced by incubation of the epimastigotes in Grace's insect medium (Sigma-Aldrich, St. Louis, MO) supplemented with 10% FCS (28°C). HFF-1 human fibroblasts were seeded at 2 × 10^3/well (80 μL) in 96-well tissue culture plates in RPMI 1640 without phenol red supplemented with 10% FCS and incubated overnight (37°C, 5% CO2). Next, trypomastigotes were added at 1.0 × 10^4/well (20 μL), and the plates were incubated (37°C, 5% CO2). After 24 h, 3-fold serial dilutions (50 μL) of the synthesized compounds were added at concentrations ranging from 0.1 to 100 μM, and the plates were incubated (37°C, 5% CO2). Each compound concentration was evaluated in triplicate. All plates included BZ (Sigma-Aldrich) as a positive control and untreated wells (100% growth) as a negative control. After 120 h, 50 μL of chlorophenol red β-D-galactopyranoside (CPRG, Sigma-Aldrich) and IGEPAL CA-630 (Sigma-Aldrich) (0.1%) was added to each well. The absorbance was measured at 570 nm in an automated microplate reader, and the data were transferred to SigmaPlot 10.0 (Systat Software Inc.) for IC50 value calculation.

[3] = Cytotoxicity in HFF-1 cells (MTS tetrazolium assay); type: cell-based; details: human, HFF-1 fibroblasts, mean ± SD of two independent assays
Protocol: as §1

[4] = target: T1, cruzain (Trypanosoma cruzi, UniProt P25779); assay: Cruzain inhibition assay (cleavage of fluorogenic substrate Z-Phe-Arg-AMC); type: biochemical; details: for inhibition at 100 µM: at 100 μM inhibitor, mean of three measurements, read-out: Percent inhibition against cruzain; for IC50: mean ± SD of three individual experiments, at least six inhibitor concentrations in triplicate, 1.5 nM cruzain, 5.0 μM Z-Phe-Arg-AMC, pH 5.5
T1 construct: inferred from Ni-NTA purification of the pro-enzyme; made in house; host or cells: Escherichia coli (M15)
Protocol: The catalytic activity of cruzain was monitored by cleavage of the fluorogenic substrate Z-Phe-Arg-aminomethyl coumarin (Z-Phe-Arg-AMC) as previously described (Ferreira et al., [2014]). The enzyme kinetics assays were performed in 0.1 M sodium acetate buffer (pH 5.5) with 5 mM dithiothreitol (DTT) and 0.01% Triton X-100. […] The enzyme reaction was monitored for 5 min at 30°C in 96-well black flat bottom plates, and the activity was calculated based on the initial rates compared with a control (DMSO). Wavelengths of 355 nm for excitation and 460 nm for emission were used. IC50 values were independently determined by determining rate measurements for at least six inhibitor concentrations, each evaluated in triplicate. To determine the mechanism of inhibition, eight substrate concentrations and four inhibitor concentrations were used, each in triplicate. The mechanism of inhibition was determined by Lineweaver-Burk plots. SigmaPlot 10.0 (Systat Software Inc., Erkrath, Germany) was used to determine the IC50 values.

[5] = design: method as in Pérez-Molina and Molina, 2018; details: patients under treatment; ref Pérez-Molina and Molina, 2018; cited from earlier work
[6] = intracellular amastigotes, Tulahuen strain in HFF-1 fibroblasts, 120 h, mean ± SD of two experiments

T1 sequence (P25779 123-337 limits assumed): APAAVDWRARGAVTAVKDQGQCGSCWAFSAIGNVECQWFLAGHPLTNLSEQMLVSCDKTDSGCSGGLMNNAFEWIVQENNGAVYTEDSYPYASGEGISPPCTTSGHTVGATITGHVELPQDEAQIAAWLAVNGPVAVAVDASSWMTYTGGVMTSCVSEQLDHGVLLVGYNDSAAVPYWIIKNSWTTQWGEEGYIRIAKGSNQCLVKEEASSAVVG

Row | Compound | CC50 at 72 h [1] | IC50 [2, 6] | CC50 at 72 h [3] | inhibition at 100 µM [4] | IC50 [4] | decrease in potency against cruzain relative to 3a ([4]; less active than 3a) | increase in potency against cruzain ([4]; 10f compared with 10c/10e) | trypanocidal activity relative to BZ ([2]; higher than that of BZ) | increase in potency against cruzain relative to 3a ([4]; more active than 3a) | activity against T. cruzi (in words) ([2]; intracellular amastigotes) | patients with severe adverse effects [5] | IC50 ([2]; TULAHUEN, HFF-1, 120 h) | activity against cruzain (in words) [4]
1 | CC(C)CC(C(=O)OCC(=O)Nc1ccc(N(C)C(=O)OC(C)(C)C)cc1)N1C(=O)C2CC=CCC2C1=O (centres unmarked) [3k] | > 64 µM | 3.9 ± 0.9 µM | > 100 µM | 7% |  |  |  |  |  |  |  |  | 
2 | COc1ccc(NC(=O)COC(=O)[C@H](CC(C)C)N2C(=O)C=CC2=O)cc1Cl [10c, 2-((3-chloro-4-methoxyphenyl)amino)-2-oxoethyl (S)-2-(2,5-dioxo-2,5-dihydro-1H-pyrrol-1-yl)-4-methylpentanoate] | 33 ± 5 µM | 0.9 ± 0.3 µM | 12 ± 1 µM | 95% | 2.3 ± 1 µM |  |  |  |  |  |  |  | 
3 | COc1ccc(NC(=O)COC(=O)[C@H](CC(C)C)N2C(=O)CCC2=O)cc1Cl [10d, 2-((3-chloro-4-methoxyphenyl)amino)-2-oxoethyl (S)-2-(2,5-dioxopyrrolidin-1-yl)-4-methylpentanoate] | > 64 µM | 18.5 ± 3.1 µM | > 100 µM | 88% | 12 ± 1 µM | 6 fold |  |  |  |  |  |  | 
4 | COc1ccc(NC(=O)COC(=O)[C@H](CC(C)C)N2C(=O)C=C(C)C2=O)cc1Cl [10e, 2-((3-chloro-4-methoxyphenyl)amino)-2-oxoethyl (S)-4-methyl-2-(3-methyl-2,5-dioxo-2,5-dihydro-1H-pyrrol-1-yl)pentanoate] | 5 ± 1 µM | 1.2 ± 0.3 µM | 4.8 ± 0.5 µM | 94% | 2.5 ± 0.6 µM |  |  |  |  |  |  |  | 
5 | COc1ccc(NC(=O)COC(=O)[C@H](CC(C)C)N2C(=O)C(Cl)=C(Cl)C2=O)cc1Cl [10f, 2-((3-chloro-4-methoxyphenyl)amino)-2-oxoethyl (S)-2-(3,4-dichloro-2,5-dioxo-2,5-dihydro-1H-pyrrol-1-yl)-4-methylpentanoate] | > 64 µM | 2 ± 0.7 µM | 33 ± 9 µM | 100% |  |  | 6 fold |  |  |  |  |  | 
6 | COc1ccc(NC(=O)COC(=O)[C@H](Cc2ccccc2)N2C(=O)C=CC2=O)cc1Cl [10j, 2-((3-chloro-4-methoxyphenyl)amino)-2-oxoethyl (S)-2-(2,5-dioxo-2,5-dihydro-1H-pyrrol-1-yl)-3-phenylpropanoate] | 67 ± 8 µM | 1 ± 0.3 µM | 15.7 ± 0.8 µM | 97% | 0.6 ± 0.1 µM |  |  | 3 fold | 4 fold |  |  |  | 
7 | COc1ccc(NC(=O)COC(=O)[C@H](CC(C)C)N2CCCCC2)cc1Cl [10l, 2-((3-chloro-4-methoxyphenyl)amino)-2-oxoethyl (S)-4-methyl-2-(piperidin-1-yl)pentanoate] | > 64 µM | 11.6 ± 2.4 µM | > 100 µM | 10% |  |  |  |  |  | moderately active |  |  | 
8 | COc1ccc(NC(=O)COC(=O)[C@H](CC(C)C)N2CCOCC2)cc1Cl [10m, 2-((3-chloro-4-methoxyphenyl)amino)-2-oxoethyl (S)-4-methyl-2-morpholinopentanoate] | > 64 µM | 1.8 ± 0.4 µM | > 100 µM | 14% |  |  |  |  |  | remarkably active |  |  | 
9 | COc1ccc(NC(=O)COC(=O)[C@H](CC(C)C)N2CCN(C(=O)OC(C)(C)C)CC2)cc1Cl [10n, tert-butyl (S)-4-(1-(2-((3-chloro-4-methoxyphenyl)amino)-2-oxoethoxy)-4-methyl-1-oxopentan-2-yl)piperazine-1-carboxylate] | 27 ± 2 µM | 1.6 ± 0.5 µM | 32 ± 5 µM | 8% |  |  |  |  |  | remarkably active |  |  | 
10 | COc1ccc(NC(=O)COC(=O)[C@H](CC(C)C)N2CCNCC2)cc1Cl.Cl [10o, 2-((3-chloro-4-methoxyphenyl)amino)-2-oxoethyl (S)-4-methyl-2-(piperazin-1-yl)pentanoate hydrochloride] | 52 ± 7 µM | 1.7 ± 0.5 µM | 32 ± 3 µM | 35% |  |  |  |  |  | remarkably active |  |  | 
11 | O=C(Cn1ccnc1[N+](=O)[O-])NCc1ccccc1 [BZ, benznidazole, reference compound] | > 64 µM |  | > 100 µM |  |  |  |  |  |  |  | up to 40% | 3 ± 0.6 µM | 
12 | COc1ccc(NCCOC(=O)C(CC(C)C)N2C(=O)C3CC=CCC3C2=O)cc1Cl (centres unmarked) [compound 7, 2-((3-chloro-4-methoxyphenyl)amino)ethyl 2-(1,3-dioxo-1,3,3a,4,7,7a-hexahydro-2H-isoindol-2-yl)-4-methylpentanoate] | 63 ± 8 µM | 1.5 ± 0.4 µM | > 100 µM | 11% |  |  |  |  |  | active |  |  | inactive
